Assay results published in PMC7613620, “Reaction hijacking of tyrosine tRNA synthetase as a whole-of-life-cycle antimalarial strategy” (Science (New York, N.Y.), 2022).

Assays:
[1] = system: aptamer-regulatable control line; assay: Growth inhibition of aptamer-regulatable control line (luciferase, 72 h); format: cell-based, Plasmodium falciparum
Protocol: 677 parasites using CRISPR-Cas9 and homology-driven repair (55, 56). A line harbourbing an aptamer-
678 regulatable fluorescent protein (eYFP) integrated in the cg6 locus is used as the control (55). […]
696 Stock solutions of ML901, DHA or borrelidin (Cayman Chemicals) were dispensed into 96-well U-bottom
697 BD Falcon™ plates and serially diluted in complete medium to yield final concentrations ranging from 20-
698 0.08 nM. Synchronous ring-stage YRScyt conditional knockdown line and the aptamer-regulatable control
699 line in varying aTc concentrations (high = 50 or 500 nM, low = 1 nM, and no aTc) were distributed into
700 the drug plate. Lowest drug treatment and a lethal dose of chloroquine (200 nM) served as reference
701 controls. Growth inhibition was analysed after 72 h using the Renilla-Glo(R) Luciferase Assay System (ref
702 no E2750 Promega) and the GloMax® Discover Multimode Microplate Reader (Promega), and IC50 values
703 were obtained from corrected dose-response curves using GraphPad Prism (version 8; GraphPad Software). […]
706 CRISPR/Cas9 was used to generate parasites encoding the S234C mutation in exon 2 of PfYRS, as shown
707 in Suppl Figure 6. Two guide RNAs (gRNA1: […] and gRNA2:
708 […]) were selected using Benchling (benchling.com), and cloned into the
709 pDC2-coCas9-gRNA plasmid essentially as described previously (58). A donor template of 645 bp, […]

[2] = biological target: ubiquitin activating enzyme (UAE) (Homo sapiens, UniProt P22314); assay: E1-E2 transthiolation HTRF assay, UAE; format: biochemical
Source text: (§1) 592 E1-E2 Transthiolation Assays
(§2) 593 An Homogeneous Time-Resolved Fluorescence (HTRF) enzyme assay was employed to evaluate
(§3) 594 compound activity against ATG7 as previously described (11). In this assay, a Flag-tagged ATG8 homolog
(§4) 595 (GABA type A receptor-associated protein; GABARAP) is activated by ATG7 and then transthiolated to a
(§5) 596 GST-tagged E2 (ATG3). The product of the enzyme reaction, Flag-GABARAP-ATG3-GST, is quantified
(§6) 597 by measuring FRET between Europium-Cryptate labelled monoclonal anti-Flag M2 (CisBio International,
(§7) 598 Cat# 61FG2KLB) and PHYCOLINK goat anti-GST allophycocyanin (Prozyme, PJ252p1). The activation
(§8) 599 and transthiolation of ubiquitin by Ubiquitin Activating Enzyme, activation and transthiolation of NEDD8
(§9) 600 by NEDD8 Activating Enzyme. […]
(§10) 606 Compounds were incubated with mature stage V gametocytes ([…], kind gift from Professor Chris Janse
(§11) 607 at Leiden University Medical Center (LUMC), the Netherlands) for 48 hours in 384 well plates before
(§12) 608 gamete formation was triggered by a drop in temperature and addition of xanthurenic acid. […]
(§13) 611 Multiple data sets using different gametocyte cultures were collected on each of two separate days.
(§14) 613 Activity against exoerythrocytic stages
(§15) 614 Primary human hepatocytes (H1500.H15B+ Lot No. HC10-10 Cryopreserved human hepatocytes) […]

[3] = biological target: NEDD8-activating enzyme (NAE) (Homo sapiens, UniProt Q8TBC4); assay: E1-E2 transthiolation HTRF assay, NAE; format: biochemical
Source text: as §1, §2, §3, §4, §5, §6, §7, §8, §9, §10, §11, §12, §13, §14, §15

ubiquitin activating enzyme (UAE), sequence (P22314 whole entry): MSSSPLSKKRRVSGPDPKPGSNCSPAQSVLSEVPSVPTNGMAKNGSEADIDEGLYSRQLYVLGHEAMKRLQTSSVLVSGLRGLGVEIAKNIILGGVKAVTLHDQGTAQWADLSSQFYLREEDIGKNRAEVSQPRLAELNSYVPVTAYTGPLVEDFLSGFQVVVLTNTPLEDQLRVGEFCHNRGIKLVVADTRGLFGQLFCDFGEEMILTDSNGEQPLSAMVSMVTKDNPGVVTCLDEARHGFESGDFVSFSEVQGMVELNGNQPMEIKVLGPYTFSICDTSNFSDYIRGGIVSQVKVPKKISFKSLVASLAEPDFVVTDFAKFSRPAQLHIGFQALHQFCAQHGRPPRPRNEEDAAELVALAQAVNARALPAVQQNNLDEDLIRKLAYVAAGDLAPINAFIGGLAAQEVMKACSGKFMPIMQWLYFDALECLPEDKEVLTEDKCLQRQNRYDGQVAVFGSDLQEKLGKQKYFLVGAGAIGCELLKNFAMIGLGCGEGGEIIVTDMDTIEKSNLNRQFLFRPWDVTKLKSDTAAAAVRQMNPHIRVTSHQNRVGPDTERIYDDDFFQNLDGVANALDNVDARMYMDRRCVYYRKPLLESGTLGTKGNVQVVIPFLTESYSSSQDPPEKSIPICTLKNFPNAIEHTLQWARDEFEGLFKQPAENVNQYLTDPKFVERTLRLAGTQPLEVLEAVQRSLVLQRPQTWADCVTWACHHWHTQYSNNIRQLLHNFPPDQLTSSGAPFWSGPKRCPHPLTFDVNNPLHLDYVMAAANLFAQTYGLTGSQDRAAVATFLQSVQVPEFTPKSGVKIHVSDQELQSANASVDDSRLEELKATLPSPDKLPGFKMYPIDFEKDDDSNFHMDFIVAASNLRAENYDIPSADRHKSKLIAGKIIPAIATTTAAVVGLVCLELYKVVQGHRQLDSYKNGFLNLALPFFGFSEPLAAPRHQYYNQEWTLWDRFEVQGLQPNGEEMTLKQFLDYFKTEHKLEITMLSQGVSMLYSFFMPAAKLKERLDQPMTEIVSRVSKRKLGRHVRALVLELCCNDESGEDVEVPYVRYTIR
NEDD8-activating enzyme (NAE), sequence (Q8TBC4 whole entry): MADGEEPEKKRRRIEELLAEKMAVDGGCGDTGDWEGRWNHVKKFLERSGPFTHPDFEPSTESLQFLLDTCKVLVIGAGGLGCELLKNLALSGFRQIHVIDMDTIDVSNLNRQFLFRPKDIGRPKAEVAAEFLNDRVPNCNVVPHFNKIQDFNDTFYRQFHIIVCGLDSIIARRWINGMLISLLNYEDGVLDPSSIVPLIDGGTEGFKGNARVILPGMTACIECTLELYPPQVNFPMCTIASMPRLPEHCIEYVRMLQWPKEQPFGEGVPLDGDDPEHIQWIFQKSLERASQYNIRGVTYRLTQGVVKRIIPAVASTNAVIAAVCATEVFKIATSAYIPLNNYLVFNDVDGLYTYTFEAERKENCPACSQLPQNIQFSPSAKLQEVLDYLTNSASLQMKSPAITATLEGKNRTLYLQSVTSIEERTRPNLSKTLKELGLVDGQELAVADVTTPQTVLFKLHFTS
NEDD8-activating enzyme (NAE), sequence (Q13564 whole entry partner): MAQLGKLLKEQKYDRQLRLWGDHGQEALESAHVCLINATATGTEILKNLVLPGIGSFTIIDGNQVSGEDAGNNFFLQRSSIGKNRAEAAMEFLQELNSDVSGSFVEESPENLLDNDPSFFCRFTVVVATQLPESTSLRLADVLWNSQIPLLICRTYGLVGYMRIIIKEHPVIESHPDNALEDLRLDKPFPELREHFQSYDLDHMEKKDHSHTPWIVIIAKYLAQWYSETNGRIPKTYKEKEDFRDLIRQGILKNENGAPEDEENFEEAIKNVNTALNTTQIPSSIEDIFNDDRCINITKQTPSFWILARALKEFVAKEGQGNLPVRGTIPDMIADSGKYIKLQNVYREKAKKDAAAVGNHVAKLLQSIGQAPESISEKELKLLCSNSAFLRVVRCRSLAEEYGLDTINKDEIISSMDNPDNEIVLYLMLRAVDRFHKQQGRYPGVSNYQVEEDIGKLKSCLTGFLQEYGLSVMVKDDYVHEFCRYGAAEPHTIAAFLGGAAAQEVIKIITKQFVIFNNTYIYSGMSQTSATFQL

Nc1ncnc2c1c(OC(F)F)nn2[C@@H]1O[C@H](COS(N)(=O)=O)[C@@H](O)[C@H]1O [ML901]
Fold change in IC50 (high aTc/ no aTc), control line [1]: no change | IC50 ([1]; Plasmodium falciparum, read-out: IC50 against control line): 2.4 ± 0.2 nM | IC50 [2]: > 1000 nM | IC50 [3]: > 1000 nM
